# Laboratory results: US9988429B2, “Glucagon analogues” (Zealand Pharma A/S, priority 2013, dated 2018)
# Starred links: 1 amine or outer side, 2 acyl side, 3 side chain; linkers in the order of their positions; H or OH if unused. Non-standard residues stand in square brackets, D forms with d. Residues, ends and D or L forms follow the SMILES beside them. Groups on a side chain read outwards from the residue. *: point of attachment. γGlu = O=C(O)[C@H](CCC(=O)[*:2])N[*:1]; Palmitoyl = CCCCCCCCCCCCCCCC(=O)*; Ac4c = NC1(C(=O)O)CCC1; Aib = CC(C)(N)C(=O)O
# What was measured:
# Type in all cases: cell-based
# [1] = biological target: T1, endogenous GLP-1 receptors (Mus musculus, UniProt O35659); experiment: Agonistic activity on endogenous GLP-1 receptor, cAMP in murine insulinoma cell line; conditions: intracellular cAMP
# T1 construct: Agonistic activity of the test compounds on endogenous GLP-1 receptors; endogenous in cells
# T1 sequence (O35659 22-463): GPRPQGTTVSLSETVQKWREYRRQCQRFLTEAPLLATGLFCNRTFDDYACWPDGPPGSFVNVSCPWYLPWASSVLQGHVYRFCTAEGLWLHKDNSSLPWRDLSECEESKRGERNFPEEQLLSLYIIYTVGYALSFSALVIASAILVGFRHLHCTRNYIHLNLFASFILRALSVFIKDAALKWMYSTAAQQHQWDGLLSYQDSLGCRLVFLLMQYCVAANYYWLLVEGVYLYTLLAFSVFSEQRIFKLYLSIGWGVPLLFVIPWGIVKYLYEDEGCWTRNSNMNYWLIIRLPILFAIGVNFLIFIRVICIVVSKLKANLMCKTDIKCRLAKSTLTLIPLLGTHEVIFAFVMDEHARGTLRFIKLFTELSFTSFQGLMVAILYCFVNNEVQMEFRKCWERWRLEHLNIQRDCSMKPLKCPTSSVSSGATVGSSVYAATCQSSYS
# Protocol: Agonistic activity of the test compounds on endogenous GLP-1 receptors was determined using a murine insulinoma cell line. Intracellular cAMP was used as an indicator of receptor activation.
# Cells were cultured for 24 h at a density of 10,000 cells/well in a 384-well plate. Medium was removed and 10 μL KRBH buffer (NaCl 130 mM, KCl 3.6 mM, NaH2PO4 0.5 mM, MgSO4 0.5 mM, CaCl2 1.5 mM) containing test compound or GLP-1 (at increasing concentrations from 0.1 pM to 100 nM) or solvent control (0.1% (v/v) DMSO) was added to the wells for 15 minutes at a temperature of 26° C.
# The cellular cAMP content is measured using the AlphaScreen cAMP Functional Assay Kit (Perkin Elmer). Measurement was performed using the Envision (PerkinElmer) according to manufacturer's recommendations.
# All measurements were performed in quadruplicate.
# The resulting cAMP curves were plotted as absolute cAMP concentrations (nM) over log (test compound concentration) and analyzed using the curve fitting program XLfit.
# [2] = biological target: T2, human glucagon-like peptide 1 receptor (GLP-1R) (Homo sapiens, UniProt P43220); experiment: GLP-1 receptor efficacy assay (cAMP AlphaScreen, CHO cells); conditions: for Ratio GLP-1/Glucagon: EC50 [GLP-1R] / EC50 [Glucagon-R], human receptors in CHO-K1
# T2 construct: expressed in transfected cells
# Protocol: (§1) The mammalian expression vectors encoding the Glucagon-R or the GLP-1-R were transfected into Chinese hamster ovary (CHO) cells by the Attractene method. Stably expressing clones were obtained by Zeocin selection (250 μg/mL) upon limited dilution of cells resistant to the selection pressure. […] One Glucagon-R expressing clone and one GLP-1-R expressing clone were chosen for compound profiling.
# (§2) CHO cells expressing the human Glucagon-R, or human GLP-1-R were seeded 24 hours prior to the assay at 30,000 cells per well in 96-well microtiter plates in culture in 100 μl growth medium. On the day of analysis, growth medium was removed and the cells were washed once with 200 μl of assay buffer (Krebs-Ringer-buffer—KRBH). The buffer was removed and the cells were incubated for 15 min at room temperature in 10 μl KRBH (KRBH+10 mM HEPES, 5 mM NaHCO3, 0.1% (V/V) BSA) with 0.1 mM IBMX in deionized water containing increasing concentrations of test peptides. The reaction was stopped by the addition of lysis buffer (0.1% w/v BSA, 5 mM HEPES, 0.3% v/v Tween-20). After cell lysis for 10 min at room temperature, lysates were transferred to 384-well plates and 10 μl of acceptor/donorbead mixture as contained in the AlphaScreen™ cAMP Functional Assay Kit was added. After one hour of incubation at room temperature in the dark, the cAMP content was determined applying the AlphaScreen™ cAMP Functional Assay Kit from Perkin-Elmer according to manufacturer instructions. […] The GLP-1/glucagon ratio is calculated as defined earlier.
# [3] = biological target: T3, human glucagon receptor (Glucagon-R) (Homo sapiens, UniProt P47871); experiment: Glucagon receptor efficacy assay (cAMP AlphaScreen, CHO cells); conditions: cAMP formation, CHO cells expressing human Glucagon-R; read-out: EC50 hGCGR CHO-K1
# T3 construct: expressed in transfected cells
# Protocol: as §1, §2
# T2 sequence (P43220 24-463): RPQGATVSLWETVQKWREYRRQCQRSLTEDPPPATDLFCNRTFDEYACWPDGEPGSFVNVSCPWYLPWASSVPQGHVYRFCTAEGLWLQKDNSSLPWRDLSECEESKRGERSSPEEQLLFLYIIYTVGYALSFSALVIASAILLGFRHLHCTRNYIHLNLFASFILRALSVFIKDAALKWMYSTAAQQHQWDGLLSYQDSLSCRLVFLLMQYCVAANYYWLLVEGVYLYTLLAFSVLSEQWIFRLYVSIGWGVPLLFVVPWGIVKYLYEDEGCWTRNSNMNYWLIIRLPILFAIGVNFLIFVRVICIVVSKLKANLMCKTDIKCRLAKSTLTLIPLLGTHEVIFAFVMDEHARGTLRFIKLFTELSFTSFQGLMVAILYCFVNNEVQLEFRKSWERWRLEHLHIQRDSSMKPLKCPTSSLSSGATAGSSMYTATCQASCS
# T3 sequence (P47871 26-477): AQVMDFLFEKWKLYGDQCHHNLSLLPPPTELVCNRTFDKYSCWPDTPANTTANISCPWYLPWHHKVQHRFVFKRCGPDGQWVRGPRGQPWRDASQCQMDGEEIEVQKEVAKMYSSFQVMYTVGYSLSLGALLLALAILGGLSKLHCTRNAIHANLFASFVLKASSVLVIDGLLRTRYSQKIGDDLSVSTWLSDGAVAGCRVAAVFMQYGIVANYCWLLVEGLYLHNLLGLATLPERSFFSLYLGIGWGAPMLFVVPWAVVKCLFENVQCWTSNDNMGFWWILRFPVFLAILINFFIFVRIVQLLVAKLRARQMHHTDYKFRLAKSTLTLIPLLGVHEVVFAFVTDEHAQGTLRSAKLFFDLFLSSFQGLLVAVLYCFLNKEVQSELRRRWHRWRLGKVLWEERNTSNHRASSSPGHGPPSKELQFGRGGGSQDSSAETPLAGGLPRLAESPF
SMILES,EC50 [1],Ratio GLP-1/Glucagon [2],"EC50 ([2]; cAMP formation, CHO cells expressing human GLP-1-R, read-out: EC50 hGLP-1R CHO-K1)",EC50 [3]
CCCCCCCCCCCCCCCC(=O)N[C@@H](CCC(=O)NCCCC[C@H](NC(=O)[C@H](CCC(=O)O)NC(=O)[C@H](CC(=O)O)NC(=O)[C@H](CC(C)C)NC(=O)[C@H](Cc1ccc(O)cc1)NC(=O)[C@H](CCCCN)NC(=O)[C@H](CO)NC(=O)[C@H](Cc1ccc(O)cc1)NC(=O)[C@H](CC(=O)O)NC(=O)[C@H](CO)NC(=O)[C@@H](NC(=O)[C@H](Cc1ccccc1)NC(=O)[C@@H](NC(=O)CNC(=O)[C@H](CCC(N)=O)NC(=O)C(C)(C)NC(=O)[C@@H](N)Cc1c[nH]cn1)[C@@H](C)O)[C@@H](C)O)C(=O)N[C@@H](C)C(=O)N[C@@H](C)C(=O)N[C@@H](CCCCN)C(=O)N[C@@H](CC(=O)O)C(=O)N[C@@H](Cc1ccccc1)C(=O)N[C@H](C(=O)N[C@@H](CCC(=O)O)C(=O)N[C@@H](Cc1c[nH]c2ccccc12)C(=O)N[C@@H](CC(C)C)C(=O)N[C@@H](CCC(=O)O)C(=O)N[C@@H](CCC(=O)O)C(=O)N[C@@H](CCC(=O)O)C(N)=O)[C@@H](C)CC)C(=O)O [Compound 17] (H-H[Aib]QGTFTSDYSKYLDEK([γGlu-Palmitoyl])AAKDFIEWLEEE-NH2),0.21 nM,3.38,0.27 nM,–
CCCCCCCCCCCCCCCC(=O)N[C@@H](CCC(=O)NCCCC[C@H](NC(=O)[C@H](CO)NC(=O)[C@H](CC(=O)O)NC(=O)[C@H](CC(C)C)NC(=O)[C@H](Cc1ccc(O)cc1)NC(=O)[C@H](CCCCN)NC(=O)[C@H](CO)NC(=O)[C@H](Cc1ccc(O)cc1)NC(=O)[C@H](CC(=O)O)NC(=O)[C@H](CO)NC(=O)[C@@H](NC(=O)[C@H](Cc1ccccc1)NC(=O)[C@@H](NC(=O)CNC(=O)[C@H](Cc1c[nH]cn1)NC(=O)C1(NC(=O)[C@@H](N)Cc2c[nH]cn2)CCC1)[C@@H](C)O)[C@@H](C)O)C(=O)N[C@@H](C)C(=O)N[C@@H](C)C(=O)N[C@@H](Cc1c[nH]cn1)C(=O)N[C@@H](CC(=O)O)C(=O)N[C@@H](Cc1ccccc1)C(=O)N[C@H](C(=O)N[C@@H](CCC(=O)O)C(=O)N[C@@H](Cc1c[nH]c2ccccc12)C(=O)N[C@@H](CC(C)C)C(=O)N[C@@H](CC(C)C)C(=O)N[C@@H](CO)C(=O)N[C@@H](C)C(N)=O)C(C)C)C(=O)O [Compound 9] (H-H[Ac4c]HGTFTSDYSKYLDSK([γGlu-Palmitoyl])AAHDFVEWLLSA-NH2),0.21 nM,1.65,–,0.2 nM
